Data on 75 molecules can be found in patent US8309577B2, “Quinuclidine compounds as α-7 nicotinic acetylcholine receptor ligands” (Bristol-Myers Squibb Company, priority 2008, dated 2012).

In the test the target is T1, α-7 nicotinic acetylcholine receptor channel expressed in HEK 293 cells (Rattus norvegicus, UniProt Q05941).
T1 construct: expressed in transfected cells
As to the kind of experiment: Ca2+-sensitive fluorescence-based FLIPR assay, α7 nicotinic ACh receptor channel function (agonist). Conditions: Table 1, HEK 293 cells, agonist Ca2+ flux. The test is classed as cell-based. In short, it runs like this:
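Potency and efficacy derived from kinetic FLIPR Ca²⁺-flux fluorescence, recorded 3 min after compound addition in Hanks buffer following a 10 s baseline.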

The mark [1] stands for this setting: FLIPR α7 activity rating (EC50, nM).

The structures appear in SMILES notation.

T1 sequence (Q05941 23-502): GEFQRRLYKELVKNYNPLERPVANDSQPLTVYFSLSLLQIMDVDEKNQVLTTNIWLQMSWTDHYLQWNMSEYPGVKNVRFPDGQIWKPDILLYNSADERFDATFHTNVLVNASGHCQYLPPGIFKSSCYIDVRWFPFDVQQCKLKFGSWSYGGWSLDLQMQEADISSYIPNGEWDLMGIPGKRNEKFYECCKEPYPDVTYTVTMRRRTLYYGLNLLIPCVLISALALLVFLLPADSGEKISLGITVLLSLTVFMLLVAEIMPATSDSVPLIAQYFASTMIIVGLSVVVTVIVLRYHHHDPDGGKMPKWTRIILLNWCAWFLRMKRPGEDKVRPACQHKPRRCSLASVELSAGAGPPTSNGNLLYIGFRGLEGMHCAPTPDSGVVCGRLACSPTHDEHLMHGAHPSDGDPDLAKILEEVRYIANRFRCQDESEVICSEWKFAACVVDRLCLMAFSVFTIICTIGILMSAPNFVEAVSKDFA

As to `c1ccc(Cc2cnc(NC3=NCC4(CN5CCC4CC5)O3)s2)cc1` (centres unmarked) [Example 105], the EC50 under setting [1] lay within 100 to 1000 nM.
The same measure, in the same setting: next, `Brc1cnc(NC2=NCC3(CN4CCC3CC4)O2)cn1` (centres unmarked) [Example 107]: 100 to 1000 nM; `Cc1csc(NC2=NCC3(CN4CCC3CC4)O2)n1` (centres unmarked) [Example 109]: 100 to 1000 nM.
As for `CC(C)(C)c1csc(NC2=NCC3(CN4CCC3CC4)O2)n1` (centres unmarked) [Example 110], the EC50 by setting is: (FLIPR α7 (EC50, nM)) 450 nM; under setting [1], 100 to 1000 nM.
The molecule `COc1ccc(C)c2nc(NC3=NCC4(CN5CCC4CC5)O3)sc12` (centres unmarked) [Example 112] registered an EC50 under setting [1] of less than 100 nM.
The same measure, in the same setting: with `c1ccc2c(NC3=NCC4(CN5CCC4CC5)O3)n[nH]c2c1` (centres unmarked) [Example 113] the figure was less than 100 nM.
As for `COc1ccn2nc(NC3=NC[C@@]4(CN5CCC4CC5)O3)nc2c1` [Example 125], the EC50 is, setting by setting: (FLIPR α7 (EC50, nM)) 17 nM; under setting [1], less than 100 nM.
With `Clc1cncc(NC2=NC[C@@]3(CN4CCC3CC4)O2)n1` [Example 127], the EC50 under setting [1] was 1000 to 100000 nM.
The same measure, in the same setting: with `COc1ccc(-c2nc(NC3=NC[C@@]4(CN5CCC4CC5)O3)sc2C)cc1` [Example 129] the figure was 100 to 1000 nM; with `COc1nc(Br)cnc1NC1=NC[C@@]2(CN3CCC2CC3)O1` [Example 130], 100 to 1000 nM.
Same read-out and setting: next, `Clc1cccc2[nH]nc(NC3=NC[C@@]4(CN5CCC4CC5)O3)c12` [Example 132]: 100 to 1000 nM; `Brc1ccc2c(NC3=NC[C@@]4(CN5CCC4CC5)O3)n[nH]c2c1` [Example 133]: less than 100 nM.
On the same count and under the same terms, next, `Clc1ccc2c(NC3=NC[C@@]4(CN5CCC4CC5)O3)n[nH]c2c1` [Example 134]: less than 100 nM.
On to `COc1ccc2c(NC3=NC[C@@]4(CN5CCC4CC5)O3)n[nH]c2c1` [Example 135], for which, under setting [1], the EC50 is less than 100 nM.
On the same count and under the same terms, with `Brc1cnc(NC2=NC[C@@]3(CN4CCC3CC4)O2)cn1` [Example 136] the figure was less than 100 nM; with `c1cncc(-c2ncc(NC3=NC[C@@]4(CN5CCC4CC5)O3)cn2)c1` [Example 138], 1000 to 100000 nM.
`c1ccc2nc(NC3=NC[C@@]4(CN5CCC4CC5)O3)ccc2c1` [Example 139]: the EC50 by setting is: (FLIPR α7 (EC50, nM)) 16 nM; under setting [1], less than 100 nM.
`Fc1ccc2nc(NC3=NC[C@@]4(CN5CCC4CC5)O3)ccc2c1` [Example 140]: under setting [1], the EC50 lay within 100 to 1000 nM.
Still for that read-out and setting: next, `c1csc(-c2cc(NC3=NC[C@@]4(CN5CCC4CC5)O3)n[nH]2)c1` [Example 143]: 100 to 1000 nM.
On the same count and under the same terms, with `Cc1cc(C)c2c(NC3=NC[C@@]4(CN5CCC4CC5)O3)nsc2n1` [Example 145] the figure was 1000 to 100000 nM.
On the same count and under the same terms, next, `c1ccc2c(NC3=NC[C@@]4(CN5CCC4CC5)O3)nccc2c1` [Example 146]: 100 to 1000 nM; `c1ccc2c(NC3=NC[C@@]4(CN5CCC4CC5)O3)ncnc2c1` [Example 147]: 100 to 1000 nM; `N#Cc1cnc(NC2=NC[C@@]3(CN4CCC3CC4)O2)cn1` [Example 148]: 1000 to 100000 nM.
As for `COc1cc(NC2=NC[C@@]3(CN4CCC3CC4)O2)nc(OC)n1` [Example 150], the EC50 under setting [1] lay within 100 to 1000 nM.
Molecule `COc1ccc(-c2cnc(NC3=NC[C@@]4(CN5CCC4CC5)O3)nc2)cc1` [Example 151] gave an EC50 under setting [1] of 100 to 1000 nM.
Same read-out and setting: with `c1ccc2c(c1)CCc1cnc(NC3=NC[C@@]4(CN5CCC4CC5)O3)nc1-2` [Example 153] the figure was 100 to 1000 nM; with `Brc1cc(NC2=NC[C@@]3(CN4CCC3CC4)O2)ccn1` [Example 154], 1000 to 100000 nM.
The same measure, in the same setting: with `Brc1cccc(NC2=NC[C@@]3(CN4CCC3CC4)O2)n1` [Example 155] the figure was 100 to 1000 nM; with `Cc1ccc2nc(NC3=NC[C@@]4(CN5CCC4CC5)O3)ccc2c1` [Example 157], 100 to 1000 nM.
Consider `Fc1cccc2[nH]nc(NC3=NC[C@@]4(CN5CCC4CC5)O3)c12` [Example 158], for which the EC50 by setting is: (FLIPR α7 (EC50, nM)) 135 nM; under setting [1], 100 to 1000 nM.
`Fc1ccc2[nH]nc(NC3=NC[C@@]4(CN5CCC4CC5)O3)c2c1` [Example 159]: the EC50 under setting [1] is less than 100 nM.
The same measure, in the same setting: next, `c1cc(NC2=NC[C@@]3(CN4CCC3CC4)O2)cnn1` [Example 160]: 1000 to 100000 nM.
Same read-out and setting: with `Cc1oc2ncnc(NC3=NC[C@@]4(CN5CCC4CC5)O3)c2c1C` [Example 161] the figure was 1000 to 100000 nM; with `COc1ccc(-c2cc(NC3=NC[C@@]4(CN5CCC4CC5)O3)n[nH]2)cc1` [Example 162], 1000 to 100000 nM; with `FC(F)(F)c1ccc2[nH]nc(NC3=NC[C@@]4(CN5CCC4CC5)O3)c2c1` [Example 163], less than 100 nM.
On the same count and under the same terms, next, `FC(F)(F)c1ccc2c(NC3=NC[C@@]4(CN5CCC4CC5)O3)n[nH]c2c1` [Example 164]: 100 to 1000 nM.
For `c1ccc2c(NC3=NC[C@@]4(CN5CCC4CC5)O3)n[nH]c2c1` [Example 165], the EC50 is 13 nM (FLIPR α7 (EC50, nM)) and less than 100 nM under setting [1].
For `COc1ccc(-c2ccnc(NC3=NC[C@@]4(CN5CCC4CC5)O3)n2)cc1` [Example 166] the same measures were 11 nM and less than 100 nM.
`Cc1sc2ncnc(NC3=NC[C@@]4(CN5CCC4CC5)O3)c2c1C` [Example 167] yielded an EC50 under setting [1] of 1000 to 100000 nM.
Same read-out and setting: next, `Brc1ccc2nc(NC3=NC[C@@]4(CN5CCC4CC5)O3)ncc2c1` [Example 168]: less than 100 nM; `Cc1nc(NC2=NC[C@@]3(CN4CCC3CC4)O2)nc(C)c1Br` [Example 171]: less than 100 nM; `COc1cc(C)nc(NC2=NC[C@@]3(CN4CCC3CC4)O2)n1` [Example 172]: 100 to 1000 nM.
Same read-out and setting: with `COc1cccc(-c2csc(NC3=NC[C@@]4(CN5CCC4CC5)O3)n2)c1` [Example 173] the figure was 100 to 1000 nM.
Regarding `Cc1cc(Cl)cc2sc(NC3=NC[C@@]4(CN5CCC4CC5)O3)nc12` [Example 174], the EC50 is 245 nM (FLIPR α7 (EC50, nM)) and 100 to 1000 nM under setting [1].
The molecule `Cc1cc(C)nc(NC2=NC[C@@]3(CN4CCC3CC4)O2)n1` [Example 176] gave an EC50 under setting [1] of 100 to 1000 nM.
Still for that read-out and setting: next, `c1ccc2c(c1)CCc1cnc(NC3=NC[C@@]4(CN5CCC4CC5)O3)nc1-2` [Example 177]: less than 100 nM.
Consider `COc1nc(NC2=NC[C@@]3(CN4CCC3CC4)O2)ncc1Br` [Example 178], for which the EC50 was 17 nM (FLIPR α7 (EC50, nM)) and less than 100 nM under setting [1].
For `COc1ccc2nc(NC3=NC[C@@]4(CN5CCC4CC5)O3)c(C)cc2c1` [Example 179], the half-maximal effective concentration (EC50) under setting [1] fell in the range of 100 to 1000 nM.
The same measure, in the same setting: next, `Cc1cc(-c2ccccc2)nc(NC2=NC[C@@]3(CN4CCC3CC4)O2)n1` [Example 180]: 100 to 1000 nM; `Cc1nnc(NC2=NC[C@@]3(CN4CCC3CC4)O2)nc1C` [Example 182]: 100 to 1000 nM.
Still for that read-out and setting: with `FC(F)(F)Oc1ccc2[nH]nc(NC3=NC[C@@]4(CN5CCC4CC5)O3)c2c1` [Example 183] the figure was less than 100 nM; with `Cc1cnc(NC2=NC[C@@]3(CN4CCC3CC4)O2)c(C)n1` [Example 186], 100 to 1000 nM.
Consider `Cc1nc(NC2=NC[C@@]3(CN4CCC3CC4)O2)sc1C` [Example 187], for which the EC50 reads like this: (FLIPR α7 (EC50, nM)) 424 nM; under setting [1], 100 to 1000 nM.
Under setting [1], `c1ccc(-c2n[nH]c(NC3=NC[C@@]4(CN5CCC4CC5)O3)n2)cc1` [Example 188] gave an EC50 of 1000 to 100000 nM.
Take `Cc1nc(NC2=NC[C@@]3(CN4CCC3CC4)O2)sc1-c1ccccc1` [Example 189]: under setting [1], the EC50 was 100 to 1000 nM.
Same read-out and setting: next, `Cn1ccc(NC2=NC[C@@]3(CN4CCC3CC4)O2)n1` [Example 190]: 1000 to 100000 nM; `Cc1cnc(NC2=NC[C@@]3(CN4CCC3CC4)O2)nc1-c1ccccc1` [Example 191]: less than 100 nM; `c1ccc(-c2ccnc(NC3=NC[C@@]4(CN5CCC4CC5)O3)n2)nc1` [Example 192]: 100 to 1000 nM.
For the molecule `Brc1cnc(NC2=NC[C@@]3(CN4CCC3CC4)O2)nc1-c1ccccc1` [Example 193], the EC50 is, setting by setting: (FLIPR α7 (EC50, nM)) 17 nM; under setting [1], less than 100 nM.
For `c1cncc(-c2ccnc(NC3=NC[C@@]4(CN5CCC4CC5)O3)n2)c1` [Example 194] the same measures were 18 nM and less than 100 nM.
On to `c1ccc(-c2nc(NC3=NC[C@@]4(CN5CCC4CC5)O3)ncc2-n2cncn2)cc1` [Example 195], for which, under setting [1], the EC50 was in the range of 1000 to 100000 nM.
Turning to `c1ccc2c(c1)OCc1cnc(NC3=NC[C@@]4(CN5CCC4CC5)O3)nc1-2` [Example 196], the EC50 is, setting by setting: (FLIPR α7 (EC50, nM)) 13 nM; under setting [1], less than 100 nM.
Molecule `Fc1ccc(NC2=NC[C@@]3(CN4CCC3CC4)O2)nc1` [Example 197] came in with a 50% effective concentration (EC50) under setting [1] of less than 100 nM.
Consider `Brc1ccc(NC2=NC[C@@]3(CN4CCC3CC4)O2)nc1` [Example 198], for which the EC50 is 15 nM (FLIPR α7 (EC50, nM)) and less than 100 nM under setting [1].
With `COc1cc(NC2=NC[C@@]3(CN4CCC3CC4)O2)ccn1` [Example 199], the EC50 under setting [1] is 1000 to 100000 nM.
On the same count and under the same terms, next, `Fc1ccc2nc(NC3=NC[C@@]4(CN5CCC4CC5)O3)sc2c1` [Example 200]: less than 100 nM.
Same read-out and setting: with `c1nc(NC2=NC[C@@]3(CN4CCC3CC4)O2)nc2c1CCCC2` [Example 201] the figure was less than 100 nM.
On to `c1nc(NC2=NC[C@@]3(CN4CCC3CC4)O2)nc2c1CCC2` [Example 202], for which the EC50 was 16 nM (FLIPR α7 (EC50, nM)) and less than 100 nM under setting [1].
Regarding `Cc1nc(NC2=NC[C@@]3(CN4CCC3CC4)O2)nc(Cl)c1C` [Example 203], the concentration for a half-maximal effect (EC50) under setting [1] is less than 100 nM.
The same measure, in the same setting: next, `O=C1CCCc2nc(NC3=NC[C@@]4(CN5CCC4CC5)O3)ncc21` [Example 204]: 100 to 1000 nM; `N#Cc1ccnc(NC2=NC[C@@]3(CN4CCC3CC4)O2)c1` [Example 205]: 100 to 1000 nM.
Same read-out and setting: next, `FC(F)(F)c1cccc2c(NC3=NC[C@@]4(CN5CCC4CC5)O3)n[nH]c12` [Example 206]: 1000 to 100000 nM.
On the same count and under the same terms, with `c1ccc(-c2ccc(NC3=NC[C@@]4(CN5CCC4CC5)O3)nc2)cc1` [Example 207] the figure was 100 to 1000 nM; with `COc1ccc2c(c1)nc(NC1=NC[C@@]3(CN4CCC3CC4)O1)n2C` [Example 208], 1000 to 100000 nM.
Under setting [1], `c1cc(C2CC2)nc(NC2=NC[C@@]3(CN4CCC3CC4)O2)n1` [Example 209] yielded an EC50 of less than 100 nM.
